According to the supplement of paper PMC10307832:

Tests used:
Assay in all cases: relative viability (nuclei count vs DMSO), 5 days (fraction); higher = more cells survive
NCI-H460 = system: NCI-H460
Summary of the method: (§1)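 Each reported value is a median over duplicate plates. It expresses relative viability: treated-well nuclei count divided by vehicle-well nuclei count. Lung cancer cell lines in 1536-well plates were dosed by pin tool a day after seeding, alone with one drug or with a fixed anchor-drug dose plus five library-drug doses (not always all listed) in √10 steps, and nuclei were counted after 5 days.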

NCI-H520 = system: NCI-H520
Summary of the method: as §1

NCI-H522 = system: NCI-H522
Summary of the method: as §1

NCI-H596 = system: NCI-H596
Summary of the method: as §1

NCI-H661 = system: NCI-H661
Summary of the method: as §1

NCI-H727 = system: NCI-H727
Summary of the method: as §1

PC-14 = system: PC-14
Summary of the method: as §1

RERF-LC-KJ = system: RERF-LC-KJ
Summary of the method: as §1

SK-MES-1 = system: SK-MES-1
Summary of the method: as §1

SW 900 = system: SW 900
Summary of the method: as §1

CC(=O)O[C@@]12CO[C@@H]1C[C@H](O)[C@@]1(C)C(=O)[C@H](O)C3=C(C)[C@@H](OC(=O)[C@H](O)[C@@H](NC(=O)OC(C)(C)C)c4ccccc4)C[C@@](O)([C@@H](OC(=O)c4ccccc4)[C@H]21)C3(C)C [Docetaxel] + Cc1cc(Nc2cc(N3CCN(C)CC3)nc(Sc3ccc(NC(=O)C4CC4)cc3)n2)n[nH]1 [Tozasertib] (partner 0.1 µM)
relative viability (NCI-H460; first compound 0.000632 µM): 0.368
relative viability (NCI-H460; first compound 0.002 µM): 0.0923
relative viability (NCI-H460; first compound 0.006325 µM): 0.0604
relative viability (NCI-H460; first compound 0.02 µM): 0.0207
relative viability (NCI-H520; first compound 0.0002 µM): 0.418
relative viability (NCI-H520; first compound 0.000632 µM): 0.468
relative viability (NCI-H520; first compound 0.002 µM): 0.445
relative viability (NCI-H520; first compound 0.006325 µM): 0.376
relative viability (NCI-H520; first compound 0.02 µM): 0.317
relative viability (NCI-H522; first compound 0.0002 µM): 0.559
relative viability (NCI-H522; first compound 0.000632 µM): 0.451
relative viability (NCI-H522; first compound 0.002 µM): 0.527
relative viability (NCI-H522; first compound 0.006325 µM): 0.551
relative viability (NCI-H522; first compound 0.02 µM): 0.585
relative viability (NCI-H596; first compound 0.0002 µM): 0.838
relative viability (NCI-H596; first compound 0.000632 µM): 0.754
relative viability (NCI-H596; first compound 0.002 µM): 0.365
relative viability (NCI-H596; first compound 0.006325 µM): 0.361
relative viability (NCI-H596; first compound 0.02 µM): 0.25
relative viability (NCI-H661; first compound 0.0002 µM): 0.367
relative viability (NCI-H661; first compound 0.000632 µM): 0.387
relative viability (NCI-H661; first compound 0.002 µM): 0.432
relative viability (NCI-H661; first compound 0.006325 µM): 0.352
relative viability (NCI-H661; first compound 0.02 µM): 0.4
relative viability (NCI-H727; first compound 0.0002 µM): 0.781
relative viability (NCI-H727; first compound 0.000632 µM): 0.614
relative viability (NCI-H727; first compound 0.002 µM): 0.611
relative viability (NCI-H727; first compound 0.006325 µM): 0.518
relative viability (NCI-H727; first compound 0.02 µM): 0.398
relative viability (PC-14; first compound 0.0002 µM): 0.534
relative viability (PC-14; first compound 0.000632 µM): 0.489
relative viability (PC-14; first compound 0.002 µM): 0.0877
relative viability (PC-14; first compound 0.006325 µM): 0.0613
relative viability (PC-14; first compound 0.02 µM): 0.0312
relative viability (RERF-LC-KJ; first compound 0.0002 µM): 0.525
relative viability (RERF-LC-KJ; first compound 0.000632 µM): 0.403
relative viability (RERF-LC-KJ; first compound 0.002 µM): 0.279
relative viability (RERF-LC-KJ; first compound 0.006325 µM): 0.278
relative viability (RERF-LC-KJ; first compound 0.02 µM): 0.197
relative viability (SK-MES-1; first compound 0.0002 µM): 0.974
relative viability (SK-MES-1; first compound 0.000632 µM): 0.459
relative viability (SK-MES-1; first compound 0.002 µM): 0.252
relative viability (SK-MES-1; first compound 0.006325 µM): 0.166
relative viability (SK-MES-1; first compound 0.02 µM): 0.134
relative viability (SW 900; first compound 0.0002 µM): 0.453
relative viability (SW 900; first compound 0.000632 µM): 0.296
relative viability (SW 900; first compound 0.002 µM): 0.259
relative viability (SW 900; first compound 0.006325 µM): 0.277
relative viability (SW 900; first compound 0.02 µM): 0.173
